Reference: US8916586B2, “Anti-angiogenic compound” (University College Dublin—National University of Ireland, …, priority 2011, dated 2014)
“Also recorded” adds a separate entry of the source.

Assays:
[1] = tested on: hyaloid vasculature in zebrafish; test: Zebrafish developmental angiogenesis assay: number of primary branches of hyaloid vasculature on dissected lens; format: in vivo; conditions: 10 μM, treated day 1-5, analysed 5 dpf
Excerpt: We have used the zebrafish model as an in vivo screen for chemical libraries as the small size and transparency of the zebra fish enables high-content screens in multi-well plate formats (MacRae and Peterson, 2003; Pichler et al., 2003; Peterson et al., 2004; den Hertog, 2005; Zon and Peterson, 2005). […] To identify anti-angiogenic drugs we used a transgenic line of zebrafish that expresses a fluorescent reporter (EGFP) specifically in vasculature (Tg(fli1:efgp)). This line was obtained from the Zebrafish International Resource Center. Our assay involved screening the effect of drugs in the library on the development of blood vessels in zebrafish. Specifically, we looked at the integrity of vessels developing in the eye (hyaloid vessels attached to the lens) and in the trunk.
All experiments were carried out under ethical approval granted by the UCD animal research ethics committee. Tg(fli1:EGFP) zebrafish were maintained according to standard procedures on a 14 hr light/10 hr dark cycle at 28° C. Referring to the schematic of FIG. 1A, embryos were obtained by natural spawning and developmental stages established by time and morphological criteria. A chemical library containing numerous compounds was screened (FIG. 1A). In this specific example, the chemical library contained 5000 compounds of the DIVERSet™ collection from ChemBridge Corp., USA. At 24 hours post fertilisation (hpf), 5 embryos per well were placed in […] of Embryo Medium/1% DMSO and incubated with drug at 28° C. on a 14 h light/10 h dark cycle. Larvae were euthanised, and fixed in 4% PFA at 4° C. overnight before analysis. (FIG. 1A).
Right lenses were dissected from the larvae and transferred to depression slides for observation under epi-fluorescence in the Olympus SZX16 and to cover-slip bottom Petri-dishes for confocal microscopy in a Zeiss UV510 META LSM system (20× and 40× inverted objectives). To achieve appropriate orientation, lenses were embedded in 10% methyl-cellulose and manipulated with a tungsten needle (0.5 mm diameter). Patterning of the hyaloid vessels on the treated larval lenses was compared to DMSO controls and the archetypal pattern previously described (Alvarez et al., 2007; Alvarez et al., 2009). The number of primary vessels radiating from the back of the lens (3-4 main branches at 5 dpf in controls and previously described), was counted and the average number was graphed for each drug. From screens of ˜1600 small molecules, four “hits” that inhibited the number of primary hyaloids vessels were identified (FIG. 1B).
To validate the “hits” from the library screen, dose-dependence experiments were conducted by screening the drugs in the assay described in Example 2 above but at a range of increasing concentrations between 1-10 μM. Larvae were maintained under the drug treatments at 28° C. on 14 hr light/10 hr dark cycle until 5 days post fertilisation (dpf), when they were euthanised and fixed in 4% PFA at 4° C. overnight before analysis. The average number of primary hyaloids branches was graphed for each concentration of drug. […] One of the lead compounds identified by the screen of chemical library was 11B which has the chemical name 2-[2-2-quinolinyl)vinyl]phenol and its structure shown below: […]

[2] = tested on: dermal-derived normal human microvascular endothelial cells (HMVEC-d); test: In vitro HMVEC-d tube formation assay on Matrigel; format: cell-based; conditions: 100 nM, 20 hr
Method: HMVEC-d were purchased from Clonetics, San Diego, Calif., USA. Cells were maintained in complete Endothelial Cell Medium (Clonetics® EGM®-2-MV BulletKit®) containing 500 ml of Endothelial Cell Basal Medium-2 and supplemented with hEGF, 0.5 ml; Hydrocortisone, 0.2 ml; GA-1000, 0.5 ml; FBS, 25 ml; VEGF, 0.5 ml; hFGF-B, 2.0 ml; R3-IGF-1, 0.5 ml; Ascorbic Acid, 0.5 ml in a 37° C. humidified atmosphere of 5% CO2/95% air. HMVEC-d were used for experiments between passages 4-8.
Matrigel (Becton Dickenson) basement membrane matrix was used to examine HMVEC-d tube formation. Matrigel (50 μl) was plated in 96 well culture plate wells after thawing on ice and allowed to polymerise at 37° C. 5% CO2 humidified atmosphere for 1 hr. HMVEC-d were removed from culture, trypsinised, and resuspended in full strength EGM growth medium. Cells were seeded at a density of 50×10^4 cells/cm^2 and incubated for 20 hr at 37° C. 5% CO2 humidified atmosphere. Endothelial cell tubule formation was assessed using phase contrast microscopy and photographed. A connecting branch between two discrete ECs was counted as one tube. The tube analysis was determined from 3 sequential fields (magnification×10) focusing on the surface of the matrigel.

[3] = tested on: mouse model of oxygen induced retinopathy (OIR); test: Mouse oxygen-induced retinopathy (OIR) model of ocular neovascularisation; format: in vivo; conditions: 2 μg/μl, postnatal day 12-17, intravitreal
Method: To assess the ability of compound 11B to inhibit ocular neovascularisation in mammalian eyes, 11B was tested in the mouse model of oxygen induced retinopathy (OIR). […] 11B was injected intravitreally into a mouse model of oxygen-induced retinopathy (OIR). The OIR model was generated by placing postnatal day 7 (P7) mouse pups into hyperoxia (75% oxygen) for 5 days and then removing them to normoxia (21%) on postnatal day 12 (P12). The hyperoxic (high oxygen) environment causes retinal blood vessels to regress between P7 and P12. The normoxic environment on P12 is a relatively hypoxic (low oxygen) environment for the mice and causes the growth of new blood vessels (angiogenesis). For all samples, eyes were enucleated, fixed, flat mounted and then stained with an isolectin antibody to visualise the blood vessels. Blood vessels were quantified and those treated with lead compounds compared to controls.

Row | Compound | number of primary branches of hyaloid vasculature [1] | inhibition of HMVEC-d tubule formation [2] | avascular area of the retina in treated eyes [3]
1 | Oc1ccc(/C=C\c2ccnc3ccccc23)cc1 [11B-799, 4-[2-(4-quinolinyl)vinyl]phenol] | inhibits developmental angiogenesis; also recorded: significant inhibition |  | 
2 | COc1cc2c(cc1OC)[C@H](c1ccc3c(c1)OCO3)N(C)CC2 (single isomer, unassigned) [11F-522S] | did not reduce |  | 
3 | COc1cc2c(cc1OC)C(c1ccc3c(c1)OCO3)N(C)CC2 (racemic) [11F-522, 1-(1,3-benzodioxol-5-yl)-6,7-dimethoxy-2-methyl-1,2,3,4-tetrahydroisoquinoline] | inhibited developmental angiogenesis; also recorded: significant (p<0.05) reduction; also recorded: significant inhibition; also recorded: significantly reduce |  | 
4 | COc1cc2c(cc1OC)[C@@H](c1ccc3c(c1)OCO3)N(C)CC2 (single isomer, unassigned) [11F-522R] | significant (p<0.05) reduction; also recorded: significantly reduce |  | 
5 | Avastin: clinically used anti-angiogenic monoclonal antibody, anti-VEGF [reference compound] |  | significantly inhibited | ~22%
